Key:
histamine H3 receptor = target: T1, histamine H3 receptor (Homo sapiens, UniProt Q9Y5N1); test: Histamine H3 functional antagonist assay (GTPγS, membranes); format: biochemical; conditions: CHO K1 membranes, [35S]-GTPγS, histamine at EC80; read-out: average pKi (pKb) at H3 (converted)
T1 construct: expressed in transfected cells; host or cells: CHO K1 cells with pSwitch/pGeneH3 (GeneSwitch, mifepristone-induced), clone 3H3; membrane preparation
Protocol: The histamine H3 cDNA is isolated from its holding vector, pcDNA3.1 TOPO (InVitrogen), by restriction digestion of plasmid DNA with the enzymes BamH1 and Not-1 and is ligated into the inducible expression vector pGene (InVitrogen) digested with the same enzymes. The GeneSwitchTM system (a system where in transgene expression is switched off in the absence of an inducer and switched on in the presence of an inducer) is performed as described in U.S. Pat. Nos. 5,364,791; 5,874,534; and 5,935,934. Ligated DNA is transformed into competent DH5α E. coli host bacterial cells and is plated onto Luria Broth (LB) agar containing ZeocinTM (an antibiotic which allows the selection of cells expressing the sh ble gene which is present on pGene and pSwitch) at 50 μgml^-1. Colonies containing the re-ligated plasmid are identified by restriction analysis. DNA for transfection into mammalian cells is prepared from 250 ml cultures of the host bacterium containing the […]3 plasmid and is isolated using a DNA preparation kit (Qiagen Midi-Prep) as per manufacturers guidelines (Qiagen). CHO K1 cells previously transfected with the pSwitch regulatory plasmid (InVitrogen) are seeded at 2×10^6 cells per T75 flask in Complete Medium, containing Hams F12 (GIBCOBRL, Life Technologies) medium supplemented with 10% v/v dialysed foetal bovine serum, L-glutamine, and hygromycin (100 μgml^-1), 24 h prior to use. Plasmid DNA is transfected into the cells using Lipofectamine plus according to the manufacturer's guidelines (InVitrogen). 48 h post transfection, cells are placed into complete medium supplemented with 500 μgml^-1 ZeocinTM. 10-14 days post selection, 10 nM Mifepristone (InVitrogen) is added to the culture medium to induce the expression of the receptor. 18 h post induction, cells are detached from the flask using ethylenediamine tetra-acetic acid (EDTA; 1:5000; InVitrogen), following several washes with PBS, pH 7.4 and are resuspended in Sorting Medium containing Minimum Essential Medium (MEM), without phenol red, and are supplemented with Earles salts and 3% Foetal Clone II (Hyclone). Approximately 1×10^7 cells are examined for receptor expression by staining with a rabbit polyclonal antibody, 4a, raised against the N-terminal domain of the histamine H3 receptor, are incubated on ice for 60 min, followed by two washes in sorting medium. Receptor bound antibody is detected by incubation of the cells for 60 min on ice with a goat anti rabbit antibody, conjugated with Alexa 488 fluorescence marker (Molecular Probes). Following two further washes with Sorting Medium, cells are filtered through a 50 μm FilconTM (BD Biosciences) and then are analysed on a FACS Vantage SE Flow Cytometer fitted with an Automatic Cell Deposition Unit. Control cells are non-induced cells treated in an analogous manner. Positively stained cells are sorted as single cells into 96-well plates, containing Complete Medium containing 500 μgml^-1 ZeocinTM and are allowed to expand before reanalysis for receptor expression via antibody and ligand binding studies. One clone, 3H3, is selected for membrane preparation. All steps of the protocol are carried out at 4° C. and with pre-cooled reagents. The cell pellet is resuspended in 10 volumes of homogenisation buffer (50 mM N-2-hydroxyethylpiperazine-N'-2-ethanesulfonic acid (HEPES), 1 mM ethylenediamine tetra-acetic acid (EDTA), pH 7.4 with KOH, supplemented with 10^-6 M leupeptin (acetyl-leucyl-leucyl-arginal; Sigma L2884), 25 μgml^-1 bacitracin (Sigma B0125), 1 mM phenylmethylsulfonyl fluoride (PMSF) and 2×10^-6 M pepstain A (Sigma)). The cells are then homogenised by 2×15 sec bursts in a 1 L glass Waring blender, followed by centrifugation at 500 g for 20 min. The supernatant is then spun at 48,000 g for 30 min. The pellet is resuspended in homogenisation buffer (4× the volume of the original cell pellet) by vortexing for 5 sec, followed by homogenisation in a Dounce homogeniser (10-15 strokes). […]

human H1 receptor = target: T2, human H1 receptor (Homo sapiens, UniProt P35367); test: Histamine H1 functional antagonist assay: determination of functional pKi values (FLIPR); format: cell-based; conditions: CHO cells expressing human H1 receptor, histamine at EC80, read-out: average pKi (pKb) at H1 (converted)
T2 construct: expressed in transfected cells
T2 sequence (P35367 whole entry): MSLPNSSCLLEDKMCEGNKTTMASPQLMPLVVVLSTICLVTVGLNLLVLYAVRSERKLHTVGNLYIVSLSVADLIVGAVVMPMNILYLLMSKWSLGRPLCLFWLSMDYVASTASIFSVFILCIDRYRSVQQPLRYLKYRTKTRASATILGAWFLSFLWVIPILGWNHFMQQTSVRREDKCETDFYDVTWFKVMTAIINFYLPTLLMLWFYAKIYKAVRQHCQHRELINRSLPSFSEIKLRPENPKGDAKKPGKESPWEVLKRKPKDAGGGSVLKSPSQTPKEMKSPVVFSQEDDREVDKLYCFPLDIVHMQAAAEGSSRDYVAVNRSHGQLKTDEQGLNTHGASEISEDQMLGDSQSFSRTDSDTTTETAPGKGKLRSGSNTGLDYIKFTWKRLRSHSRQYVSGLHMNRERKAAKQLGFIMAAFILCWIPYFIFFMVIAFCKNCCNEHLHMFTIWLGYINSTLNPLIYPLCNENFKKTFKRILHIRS
Protocol: The human H1 receptor is cloned using known procedures described in the literature [Biochem. Biophys. Res. Commun., 201(2):894 (1994)]. Chinese hamster ovary (CHO) cells stably expressing the human H1 receptor are generated according to known procedures described in the literature [Br. J. Pharmacol., 117(6):1071 (1996)]. The histamine H1 cell line is seeded into non-coated black-walled clear bottom 384-well tissue culture plates in alpha minimum essential medium (Gibco/Invitrogen, cat no. 22561-021), supplemented with 10′)/0 dialysed foetal calf serum (Gibco/Invitrogen cat no. 12480-021) and 2 mM L-glutamine (Gibco/Invitrogen cat no 25030-024) and is maintained overnight at 5% CO2, 37° C. Excess medium is removed from each well to leave 10 μl. 30 μl loading dye (250 μM Brilliant Black, 2 μM Fluo-4 diluted in Tyrodes buffer+probenecid (145 mM NaCl, 2.5 mM KCl, 10 mM HEPES, 10 mM D-glucose, 1.2 mM MgCl2, 1.5 mM CaCl2, 2.5 mM probenecid, pH adjusted to 7.40 with NaOH 1.0 M)) is added to each well and the plates are incubated for 60 min at 5% CO2, 37° C. 10 μl of test compound, diluted to the required concentration in Tyrodes buffer+probenecid (or 10 μl Tyrodes buffer+probenecid as a control) is added to each well and the plate is incubated for 30 min at 37° C., 5% CO2. The plates are then placed into a FLIPR™(Molecular Devices, UK) to monitor cell fluorescence (λex=488 nm, λEM=540 nm) in the manner described in Sullivan et al., (In: Lambert DG (ed.), Calcium Signaling Protocols, New Jersey: Humana Press, 1999, 125-136) before and after the addition of 10 μl histamine at a concentration that results in the final assay concentration of histamine being EC80. Functional antagonism is indicated by a suppression of histamine induced increase in fluorescence, as measured by the FLIPR™ system (Molecular Devices). By means of concentration effect curves, functional affinities are determined using standard pharmacological mathematical analysis.

T1 sequence (Q9Y5N1 whole entry, species assumed): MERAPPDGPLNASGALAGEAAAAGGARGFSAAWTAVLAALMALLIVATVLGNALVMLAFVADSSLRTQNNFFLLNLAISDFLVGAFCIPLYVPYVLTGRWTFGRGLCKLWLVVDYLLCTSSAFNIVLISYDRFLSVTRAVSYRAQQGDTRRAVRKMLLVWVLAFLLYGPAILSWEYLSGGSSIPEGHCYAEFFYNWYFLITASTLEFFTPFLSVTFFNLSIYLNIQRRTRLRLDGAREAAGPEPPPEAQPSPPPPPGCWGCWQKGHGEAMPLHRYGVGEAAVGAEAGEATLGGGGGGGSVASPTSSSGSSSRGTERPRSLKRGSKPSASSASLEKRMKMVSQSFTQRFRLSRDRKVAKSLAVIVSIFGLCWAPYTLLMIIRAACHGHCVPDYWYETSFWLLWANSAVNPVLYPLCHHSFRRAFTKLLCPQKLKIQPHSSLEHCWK

SMILES	Ki (histamine H3 receptor) [nM]	Ki (human H1 receptor) [nM]
CCCCc1cc(O[C@H]2CCN(CCCC(=O)N3CCCCC3)C2)c2ncccc2c1 [Example 39, 6-butyl-8-({(3S)-1-[4-oxo-4-(1-piperidinyl)butyl]-3-pyrrolidinyl}oxy)quinoline]	> 316	< 10
CCCCc1cc(OC2CCN(CCNC(=O)CC)CC2)c2ncccc2c1 [Example 73, N-(2-{4-[(6-butyl-8-quinolinyl)oxy]-1-piperidinyl}ethyl) propanamide]	> 316	< 10
CCCCc1cc(OC2CCN(CCCCNC(C)=O)CC2)c2ncccc2c1 [Example 79, N-(4-{4-[(6-Butyl-8-quinolinyl)oxy]-1-piperidinyl}butyl)acetamide]	> 316	< 10
CCCCc1cc(OC2CCN(CCCCNC(=O)CCC)CC2)c2ncccc2c1 [Example 65, N-(4-{4-[(6-butyl-8-quinolinyl)oxy]-1-piperidinyl}butyl) butanamide]	> 316	< 10
CCCCCCc1cc(OC2CCN(C[C@H]3CC[C@H](C(=O)NCC(C)(C)C)CC3)CC2)c2ncccc2c1 [Example 52, trans-N-(2,2-dimethylpropyl)-4-({4-[(6-hexyl-8-quinolinyl)oxy]-1-piperidinyl}methyl)cyclohexane carboxamide]	> 316	< 100
CCCCc1cc(OC2CCN(CC(=O)NC(C)C)CC2)c2ncccc2c1 [Example 14, 2-{4-[(6-butyl-8-quinolinyl)oxy]-1-piperidinyl}-N-(1-methylethyl)acetamide]	> 3160	< 100
CCCCc1cc(OC2CCN(CCC(=O)NCC)CC2)c2ncccc2c1 [Example 15, 3-{4-[(6-butyl-8-quinolinyl)oxy]-1-piperidinyl}-N-ethylpropanamide]	> 3160	< 100
CCCCCCc1cc(OC2CCN(C[C@H]3CC[C@H](C(=O)Nc4ccc(C)cc4)CC3)CC2)c2ncccc2c1 [Example 48, trans-4-({4-[(6-hexyl-8-quinolinyl)oxy]-1-piperidinyl}methyl)-N-(4-methylphenyl) cyclohexane carboxamide]	> 316	< 100
CCCCc1cc(OC2CCN(CCCC(=O)N3CCCCC3)CC2)c2ncccc2c1 [Example 24, 6-butyl-8-({1-[4-oxo-4-(1-piperidinyl)butyl]-4-piperidinyl}oxy)quinoline]	> 3160	< 100
CCCCc1cc(OC2CCN(C[C@H]3CC[C@H](C(=O)NCCC)CC3)CC2)c2ncccc2c1 [Example 45, Trans-4-({4-[(6-butyl-8-quinolinyl)oxy]-1-piperidinyl}methyl)-N-propylcyclohexane carboxamide]	> 316	< 10
CCCCCCc1cc(OC2CCN(C[C@H]3CC[C@H](C(=O)NCCC(C)C)CC3)CC2)c2ncccc2c1 [Example 50, trans-4-({4-[(6-hexyl-8-quinolinyl)oxy]-1-piperidinyl}methyl)-N-(3-methylbutyl) cyclohexane carboxamide]	> 316	< 100
CCCCCCc1cc(OC2CCN(C[C@H]3CC[C@H](C(=O)NCc4ccc(C)cc4)CC3)CC2)c2ncccc2c1 [Example 49, trans-4-({4-[(6-hexyl-8-quinolinyl)oxy]-1-piperidinyl}methyl)-N-[(4-methylphenyl)methyl]cyclohexane carboxamide]	> 316	< 100
CCCCc1cc(OC2CCN(CCCNC(=O)CC)CC2)c2ncccc2c1 [Example 86, N-(3-{4-[(6-Butyl-8-quinolinyl)oxy]-1-piperidinyl}propyl)propanamide]	> 316	< 10
CCCCCCc1cc(OC2CCN(C[C@H]3CC[C@H](C(=O)N4CCOCC4)CC3)CC2)c2ncccc2c1 [Example 57, 6-hexyl-8-[(1-{[trans-4-(4-morpholinylcarbonyl)cyclohexyl]methyl}-4-piperidinyl)oxy]quinoline]	> 316	< 100
CCCCc1cc(OC2CCN(CCCC(=O)NC(C)C)CC2)c2ncccc2c1 [Example 25, 4-{4-[(6-butyl-8-quinolinyl)oxy]-1-piperidinyl}-N-(1-methylethyl)butanamide]	> 3160	< 10
CCCCc1cc(OC2CCN(CCC(=O)NC(C)(C)C)CC2)c2ncccc2c1 [Example 17, 3-{4-[(6-butyl-8-quinolinyl)oxy]-1-piperidinyl}-N-(1,1-dimethylethyl) propanamide]	> 3160	< 10
CCCCc1cc(OC2CCN(CCNC(=O)C3CCCCC3)CC2)c2ncccc2c1 [Example 75, N-(2-{4-[(6-butyl-8-quinolinyl)oxy]-1-piperidinyl}ethyl) cyclohexane carboxamide]	> 316	< 10
CCCCc1cc(OC2CCN(CCCC(=O)NCC)CC2)c2ncccc2c1 [Example 20, 4-{4-[(6-butyl-8-quinolinyl)oxy]-1-piperidinyl}-N-ethylbutanamide]	> 3160	< 10
CCCCc1cc(OC2CCN(CC(=O)NCCCOC)CC2)c2ncccc2c1 [Example 8, 2-{4-[(6-butyl-8-quinolinyl)oxy]-1-piperidinyl}-N-[3-(methyloxy)propyl] acetamide]	> 3160	< 100
CCCCc1cc(OC2CCN(C[C@H]3CC[C@H](C(=O)NC(C)C)CC3)CC2)c2ncccc2c1 [Example 42, Trans-4-({4-[(6-butyl-8-quinolinyl)oxy]-1-piperidinyl}methyl)-N-(1-methylethyl)cyclohexanecarboxamide]	> 316	< 100
CCCCc1cc(OC2CCN(CC3CCN(C(=O)CC)CC3)CC2)c2ncccc2c1 [Example 2, 6-Butyl-8-({1-[(1-propanoyl-4-piperidinyl)methyl]-4-piperidinyl}oxy)quinoline]	> 316	< 100
CCCCc1cc(OC2CCN(CCCCC(=O)NC(C)C)CC2)c2ncccc2c1 [Example 32, 5-{4-[(6-butyl-8-quinolinyl)oxy]-1-piperidinyl}-N-(1-methylethyl) pentanamide]		< 10
